Usually ED50 stands for the midpoint of the dose-response relation.

The text below walks through data of ChEMBL document CHEMBL2203152, “Systematic in vivo screening of a series of 1-propyl-4-arylpiperidines against dopaminergic and serotonergic properties in rat brain: a scaffold-jumping approach” (J Med Chem, 2012).

The source made the active and inactive calls. The rule behind the calls is not given here.

The test system of test [1] is Rattus norvegicus. The test can be described thus: Decrease in 5-HIAA level in Sprague-Dawley rat striatum at 6.4 umol/kg, sc by HPLC analysis relative to saline-treated control. In kind it is functional. The arrangement: scale not given: the % may be the effect or the level left.
Test [2] deals with Rattus norvegicus. The test can be described thus: Increase in DOPAC level in Sprague-Dawley rat striatum at 6.4 umol/kg, sc by HPLC analysis relative to saline-treated control. The format is functional.
In test [3] the test system is Rattus norvegicus. The test can be described thus: Reduction in spontaneous locomotor activity in Sprague-Dawley rat at 6.4 umol/kg, sc measured after 15 to 60 mins relative to saline-treated control. The format is functional. Also noted: scale not given: the % may be the effect or the level left.
In test [4] the test system is Rattus norvegicus. The test can be described thus: Increase in DOPAC level in sc dosed Sprague-Dawley rat striatum by HPLC analysis. In kind it is functional.
For test [5], the system named is Rattus norvegicus. The test can be described thus: Decrease in 5-HIAA level in Sprague-Dawley rat striatum at 37 umol/kg, sc by HPLC analysis relative to saline-treated control. The format is functional. The arrangement: scale not given: the % may be the effect or the level left.
Test [6] concerns Rattus norvegicus. The test can be described thus: Increase in DOPAC level in Sprague-Dawley rat striatum at 37 umol/kg, sc by HPLC analysis relative to saline-treated control. The format is functional.
Test [7] concerns Rattus norvegicus. The test is described as follows: Reduction in spontaneous locomotor activity in Sprague-Dawley rat at 37 umol/kg, sc measured after 15 to 60 mins relative to saline-treated control. The format is functional. Also noted: scale not given: the % may be the effect or the level left.
Test [8] relates to Rattus norvegicus. The test can be described thus: Decrease in 5-HIAA level in Sprague-Dawley rat striatum at 25 umol/kg, sc by HPLC analysis relative to saline-treated control. The arrangement: scale not given: the % may be the effect or the level left. The format is functional.
Test [9] concerns Rattus norvegicus. The test can be described thus: Increase in DOPAC level in Sprague-Dawley rat striatum at 25 umol/kg, sc by HPLC analysis relative to saline-treated control. The format is functional.
The test system of test [10] is Rattus norvegicus. The test is described as follows: Reduction in spontaneous locomotor activity in Sprague-Dawley rat at 25 umol/kg, sc measured after 15 to 60 mins relative to saline-treated control. The format is functional. Also noted: scale not given: the % may be the effect or the level left.
A short description of test [11]: Binding affinity to dopamine receptor.
The nature of test [12]: Binding affinity to 5-HT receptor.

As to `O=C1Cc2cc(CCN3CCN(c4nsc5ccccc45)CC3)c(Cl)cc2N1` [ZIPRASIDONE], the results for the Activity in the test with Rattus norvegicus [1], in the test with Rattus norvegicus [2] and in the test with Rattus norvegicus [3] were 98%, 311% and 13%, respectively. Moreover, the ED50 in the test with Rattus norvegicus [4] was determined as 1.2 µmol/kg.

Consider `O=C(NCCN1CCOCC1)c1ccc(Cl)cc1` [MOCLOBEMIDE], for which the values for the Activity with Rattus norvegicus [5], in the test on Rattus norvegicus [6] and in the test with Rattus norvegicus [7] were 81%, 18% and 164%, respectively.

As to `CN(C)CCCC1(c2ccc(F)cc2)OCc2cc(C#N)ccc21` (stereo not drawn) [CITALOPRAM], the Activity in the test on Rattus norvegicus [8] worked out at 69%; in the test on Rattus norvegicus [9], 101%; in the test with Rattus norvegicus [10], 50%. Besides, in the test on Rattus norvegicus [4], the ED50 entry is “inactive”.

`CCCN1CC=C(c2c[nH]c3ccc(Cl)cc23)CC1`: the Activity was 80 nM in [11] and 260 nM in test [12].
